{
  "source": "patent US20220389515A1",
  "about": "“USE OF BIOMARKERS TO PREDICT CLINICAL SENSITIVITY TO 2-(4-CHLOROPHENYL)-N-((2-(2,6-DIOXOPIPERIDIN-3-YL)-1-OXOISOINDOLIN-5-YL)METHYL)-2,2-DIFLUOROACETAMIDE” (priority 2019, published 2022)",
  "key": {"[1]": {"tested_on": "U937, OCI-AML2 and MOLM-13", "test": "Cell proliferation of parental, CRBN-ablated and GSPT1-G575N expressing AML cells", "assay_type": "cell-based, human", "description": "FIG. 2A illustrates the volcano plot of differentially abundant proteins in response to Compound D treatment relative to the DMSO control. KG1 cells were treated with DMSO or 100 nM Compound D for 4 hours and subjected to TMT proteomics analysis. The X-axis denotes the log 2-fold change of Compound D versus the DMSO control for each protein. P-values were corrected for multiple hypothesis testing using the Benjamini-Hoschberg method to arrive at an adjusted-P-value (adj-P, also known as a false discovery rate). The y-axis denotes the −log 10 (adj-P) values indicating statistical significance such that proteins lying above the dotted red line are statistically significant findings with adjusted P-values<0.05. FIG. 2B illustrates the immunoblot analysis of KG1 and U937 cells treated with DMSO or Compound D for 4 hours. Where indicated, cells were pretreated with Bortezomib or MLN4924 for 30 minutes. […]\nFor cell proliferation assays, human cancer cell lines cultured in the growth medium recommended by the vendor (as described above) were seeded into black 384-well plates containing DMSO or test compounds. […] After 72 hours, cell proliferation was assessed using the CTG assay according to the manufacturer's instructions. […]"}, "[2]": {"molecular_target": "T1, GSPT1 (Homo sapiens, UniProt P15170, G437N)", "T1 construct": "endogenous in cells; host or cells: KG-1 (TMT proteomics); KG1, U937 / U937-Cas9, MOLM-13, OCI-AML2 (immunoblots)", "T1 sequence (P15170 1-637 isoform P15170-3 G575N)": "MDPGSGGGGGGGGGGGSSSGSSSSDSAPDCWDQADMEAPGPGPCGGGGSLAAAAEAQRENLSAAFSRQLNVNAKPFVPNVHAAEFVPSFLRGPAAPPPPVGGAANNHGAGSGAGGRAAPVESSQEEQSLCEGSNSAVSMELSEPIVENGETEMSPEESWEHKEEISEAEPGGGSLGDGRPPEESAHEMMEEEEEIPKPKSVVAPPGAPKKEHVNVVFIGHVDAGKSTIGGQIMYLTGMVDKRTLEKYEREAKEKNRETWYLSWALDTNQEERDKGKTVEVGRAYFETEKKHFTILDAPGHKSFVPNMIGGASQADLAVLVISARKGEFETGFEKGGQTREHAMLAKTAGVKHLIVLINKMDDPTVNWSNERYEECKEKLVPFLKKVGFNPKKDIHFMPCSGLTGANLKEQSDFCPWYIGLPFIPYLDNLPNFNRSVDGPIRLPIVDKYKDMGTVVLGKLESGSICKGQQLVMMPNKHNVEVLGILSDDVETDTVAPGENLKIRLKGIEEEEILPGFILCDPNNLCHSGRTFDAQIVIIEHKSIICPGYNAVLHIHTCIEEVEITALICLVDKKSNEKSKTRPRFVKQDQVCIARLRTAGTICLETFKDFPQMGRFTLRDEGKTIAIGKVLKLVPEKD", "T1 sequence (Q96SW2 whole entry partner)": "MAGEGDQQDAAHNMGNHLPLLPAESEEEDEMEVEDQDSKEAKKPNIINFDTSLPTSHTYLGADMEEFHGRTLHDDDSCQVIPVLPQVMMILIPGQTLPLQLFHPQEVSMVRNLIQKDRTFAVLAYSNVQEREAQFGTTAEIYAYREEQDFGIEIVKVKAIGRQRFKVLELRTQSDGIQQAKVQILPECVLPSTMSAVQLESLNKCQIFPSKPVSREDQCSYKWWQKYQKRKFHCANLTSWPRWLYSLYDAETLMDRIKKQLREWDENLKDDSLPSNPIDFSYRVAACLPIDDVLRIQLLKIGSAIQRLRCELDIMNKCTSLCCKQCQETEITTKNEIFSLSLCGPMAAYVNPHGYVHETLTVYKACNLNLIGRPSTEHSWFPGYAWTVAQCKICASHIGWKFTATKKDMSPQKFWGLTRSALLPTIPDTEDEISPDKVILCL", "T1 sequence (Q16531 2-1140 partner)": "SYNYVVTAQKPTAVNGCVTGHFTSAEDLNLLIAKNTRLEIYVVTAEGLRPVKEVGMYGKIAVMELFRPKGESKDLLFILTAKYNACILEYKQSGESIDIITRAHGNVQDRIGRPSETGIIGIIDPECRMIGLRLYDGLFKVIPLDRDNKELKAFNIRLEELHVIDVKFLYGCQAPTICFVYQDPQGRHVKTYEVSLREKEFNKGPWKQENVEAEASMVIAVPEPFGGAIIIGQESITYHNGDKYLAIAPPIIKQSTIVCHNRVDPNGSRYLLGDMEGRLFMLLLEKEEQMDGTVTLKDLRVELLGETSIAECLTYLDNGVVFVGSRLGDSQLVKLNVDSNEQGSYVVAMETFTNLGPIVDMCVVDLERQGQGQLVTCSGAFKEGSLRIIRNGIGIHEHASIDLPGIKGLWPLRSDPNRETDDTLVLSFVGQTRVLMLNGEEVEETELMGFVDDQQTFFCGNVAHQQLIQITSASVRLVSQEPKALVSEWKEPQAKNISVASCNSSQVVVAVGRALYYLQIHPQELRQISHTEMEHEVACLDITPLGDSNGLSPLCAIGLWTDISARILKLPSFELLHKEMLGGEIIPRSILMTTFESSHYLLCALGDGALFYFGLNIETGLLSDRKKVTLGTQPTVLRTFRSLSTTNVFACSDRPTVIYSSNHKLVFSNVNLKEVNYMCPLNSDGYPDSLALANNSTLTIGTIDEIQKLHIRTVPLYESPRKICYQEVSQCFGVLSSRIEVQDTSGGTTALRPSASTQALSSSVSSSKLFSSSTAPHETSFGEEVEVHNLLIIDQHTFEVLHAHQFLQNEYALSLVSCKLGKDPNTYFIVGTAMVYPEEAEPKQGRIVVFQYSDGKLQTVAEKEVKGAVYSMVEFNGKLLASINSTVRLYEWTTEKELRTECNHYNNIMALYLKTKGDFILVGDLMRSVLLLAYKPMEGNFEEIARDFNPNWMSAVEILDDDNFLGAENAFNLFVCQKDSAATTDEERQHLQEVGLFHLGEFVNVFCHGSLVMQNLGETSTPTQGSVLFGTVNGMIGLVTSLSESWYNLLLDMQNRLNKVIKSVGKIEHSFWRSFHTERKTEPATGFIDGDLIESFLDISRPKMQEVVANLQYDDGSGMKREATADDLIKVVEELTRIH", "test": "Immunoblot analysis of Compound D-induced GSPT1 degradation in AML cells", "assay_type": "cell-based", "settings": "U937, MOLM-13, OCI-AML2 stably expressing HA-GSPT1-G575N", "description": "(§1) FIG. 2A illustrates the volcano plot of differentially abundant proteins in response to Compound D treatment relative to the DMSO control. KG1 cells were treated with DMSO or 100 nM Compound D for 4 hours and subjected to TMT proteomics analysis. The X-axis denotes the log 2-fold change of Compound D versus the DMSO control for each protein. P-values were corrected for multiple hypothesis testing using the Benjamini-Hoschberg method to arrive at an adjusted-P-value (adj-P, also known as a false discovery rate). The y-axis denotes the −log 10 (adj-P) values indicating statistical significance such that proteins lying above the dotted red line are statistically significant findings with adjusted P-values<0.05. FIG. 2B illustrates the immunoblot analysis of KG1 and U937 cells treated with DMSO or Compound D for 4 hours. Where indicated, cells were pretreated with Bortezomib or MLN4924 for 30 minutes. FIGS. 2C and 2D illustrate the immunoblot analysis (FIG. 2C) and cell proliferation (FIG. 2D) of U937-Cas9 parental cells or cells stably transduced with lentiviral vectors expressing a non-targeting sgRNA (sgNT-1), a sgRNA targeting a non-coding region (sgNC-8), or a sgRNA targeting CRBN(sgCRBN-8). Cells were treated with DMSO or Compound D at indicated concentrations. FIGS. 2E and 2F illustrate the immunoblot analysis (left panel) and cell proliferation (right panel) of MOLM-13 (FIG. 2E) and OCI-AML2 (FIG. 2F) parental and CRBN−/− cells. Cells were treated with DMSO or Compound D at indicated concentrations. Results shown in all figure panels are representative of three biological replicates. Data in FIGS. 2D, 2E (right panel), and 2F (right panel) are shown as mean±SD, n=3 technical replicates.\n(§2) FIG. 3A illustrates FLAG-HA tagged cereblon wild-type (FLAG-HA-CRBN) or Y384A/W386A mutant (FLAG-HA-YWAA) produced in 293FT CRBN−/− cells was used to capture V5 tagged GSPT1 (GSPT1-V5) and V5 tagged IKZF1 (IKZF1-V5) transiently expressed in 293FT CRBN−/− cells. […] FIG. 3B illustrates the surface representation of GSPT1 in complex with cereblon, DDB1 and Compound D, with DDB1 shown in purple, cereblon in blue, and GSPT1 in orange. The position of Compound D is shown with a white arrow. FIG. 3C illustrates the Fo-Fc omit electron density (green mesh) for Compound D (yellow sticks) contoured at 3.06. FIG. 3D illustrates GSPT1's interaction with cereblon is mediated by a β-hairpin loop. Hydrogen bond interactions between cereblon and the GPST1 β-hairpin are shown as yellow dashes. FIG. 3E illustrates details of the binding interface between cereblon and GSPT1. Compound D is represented as yellow sticks. Predicted polar interactions between Compound D and cereblon are shown as yellow dashes. FIG. 3F illustrates the immunoblot analysis of U937 parental cells or cells stably expressing HA-GSPT1-G575N. Cells were treated with DMSO or Compound D at the indicated concentrations. FIGS. 3G and 311 illustrate the immunoblot analysis (left panel) and cell proliferation (right panel) of MOLM-13 (FIG. 3G) and OCI-AML2 (FIG. 311) parental cells and cells stably expressing HA tagged GSPT1-G575N. Cells were treated with DMSO or Compound D at indicated concentrations.\n(§3) Like all other cereblon modulators, Compound D contains a glutarimide ring (FIG. 1A) that can bind cereblon and redirect it to target neosubstrates for degradation. Thus, the effect of Compound D on the global proteome in AML cell line KG-1 was assessed using tandem mass tag (TMT) quantitative mass spectrometry.\n(§4) Specifically, U937 cells stably expressing Cas9 were infected with lentiviral vectors constitutively expressing RFP and non-targeting or non-coding sgRNA (sgNT) controls, or sgRNAs targeting TSC1 or TSC2. Infected cells were selected with 1 μg/ml puromycin. […]"}, "[3]": {"molecular_target": "T2, GSPT1 (Homo sapiens, UniProt P15170)", "T2 construct": "endogenous in cells; host or cells: KG-1 (TMT proteomics); KG1, U937 / U937-Cas9, MOLM-13, OCI-AML2 (immunoblots)", "T2 sequence (P15170 1-637 isoform P15170-3)": "as the sequence (P15170 1-637 isoform P15170-3 G575N) above, with N575G counted along it", "T2 sequence (Q96SW2 whole entry partner)": "as the sequence (Q96SW2 whole entry partner) above", "T2 sequence (Q16531 2-1140 partner)": "as the sequence (Q16531 2-1140 partner) above", "test": "Immunoblot analysis of Compound D-induced GSPT1 degradation in AML cells", "assay_type": "cell-based", "description": "as §1, §2, §3, §4"}, "[4]": {"molecular_target": "T3, HA-tagged GSPT1 and endogenous cereblon (Homo sapiens, UniProt P15170+Q96SW2)", "T3 construct": "expressed in transfected cells; host or cells: U937-Cas9 cells stably expressing HA-tagged GSPT1 (cereblon endogenous); cells treated with MLN4924 and Compound D, anti-HA immunoprecipitation", "T3 sequence (P15170 1-637 isoform P15170-3)": "as the sequence (P15170 1-637 isoform P15170-3 G575N) above, with N575G counted along it", "T3 sequence (Q96SW2 whole entry)": "as the sequence (Q96SW2 whole entry partner) above", "T3 sequence (Q16531 whole entry partner)": "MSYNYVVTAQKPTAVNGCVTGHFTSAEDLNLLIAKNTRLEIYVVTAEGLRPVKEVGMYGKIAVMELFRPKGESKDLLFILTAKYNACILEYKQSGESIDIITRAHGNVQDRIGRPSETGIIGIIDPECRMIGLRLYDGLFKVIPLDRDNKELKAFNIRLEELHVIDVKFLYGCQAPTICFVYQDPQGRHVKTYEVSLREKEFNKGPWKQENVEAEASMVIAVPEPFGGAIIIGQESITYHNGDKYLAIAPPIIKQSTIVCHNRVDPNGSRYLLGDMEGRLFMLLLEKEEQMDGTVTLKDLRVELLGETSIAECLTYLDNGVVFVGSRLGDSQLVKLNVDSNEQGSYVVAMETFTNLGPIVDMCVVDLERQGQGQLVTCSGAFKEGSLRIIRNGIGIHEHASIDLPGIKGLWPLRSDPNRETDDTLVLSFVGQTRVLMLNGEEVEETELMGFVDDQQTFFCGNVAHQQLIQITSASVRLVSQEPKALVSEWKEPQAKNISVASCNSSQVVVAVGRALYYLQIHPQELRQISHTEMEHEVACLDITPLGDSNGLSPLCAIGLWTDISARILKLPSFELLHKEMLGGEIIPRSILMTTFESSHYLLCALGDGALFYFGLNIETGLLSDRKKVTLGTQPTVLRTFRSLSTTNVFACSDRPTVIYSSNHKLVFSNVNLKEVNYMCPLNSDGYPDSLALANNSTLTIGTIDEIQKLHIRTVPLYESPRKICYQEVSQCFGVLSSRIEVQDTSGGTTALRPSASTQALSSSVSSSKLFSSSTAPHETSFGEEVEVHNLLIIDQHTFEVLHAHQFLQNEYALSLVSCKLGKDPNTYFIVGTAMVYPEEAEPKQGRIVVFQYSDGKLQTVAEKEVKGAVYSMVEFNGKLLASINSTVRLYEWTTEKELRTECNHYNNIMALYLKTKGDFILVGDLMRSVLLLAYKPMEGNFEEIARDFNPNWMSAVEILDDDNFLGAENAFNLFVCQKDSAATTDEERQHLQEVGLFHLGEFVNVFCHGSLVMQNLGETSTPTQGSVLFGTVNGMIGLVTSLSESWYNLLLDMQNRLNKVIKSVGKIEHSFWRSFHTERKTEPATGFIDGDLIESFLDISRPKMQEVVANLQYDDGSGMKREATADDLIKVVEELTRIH", "test": "Anti-HA immunoprecipitation of HA-tagged GSPT1 with endogenous cereblon in U937-Cas9 cells", "assay_type": "cell-based", "settings": "with MLN4924"}},
  "note": "Entries after “also recorded” stand apart in the source; their conditions may differ.",
  "data": [
    {"compound": "O=C1CCC(N2Cc3cc(CNC(=O)C(F)(F)c4ccc(Cl)cc4)ccc3C2=O)C(=O)N1", "note": "(stereo not drawn) [Compound D, 2-(4-chlorophenyl)-N-((2-(2,6-dioxopiperidin-3-yl)-1-oxoisoindolin-5-yl)methyl)-2,2-difluoroacetamide]", "values": [
      {"measurement": "anti-proliferative effect after ablation of CRBN", "setting": "[1]; CRBN knockout U937, OCI-AML2, MOLM-13", "value": "completely abolished the anti-proliferative effect"},
      {"measurement": "antiproliferative response in cells overexpressing GSPT1-G575N", "setting": "[1]; U937, OCI-AML2, MOLM-13, GSPT1 stabilization", "value": "completely inhibited the response to Compound D"},
      {"measurement": "Compound D-induced degradation of GSPT1-G575N", "setting": "[2]", "value": "conferred complete resistance to Compound D-induced degradation"},
      {"measurement": "downregulation of GSPT1 by Compound D under bortezomib, MLN4924 or knockout of CRBN", "setting": "[3]; KG1, U937, MOLM-13, OCI-AML2, pretreatment 30 minutes", "value": "completely blocked"},
      {"measurement": "Compound D induced GSPT1 degradation after ILF2 or ILF3 knockout", "setting": "[3]; U937, OCI-AML2", "value": "drastically reduced cereblon protein levels, and hence Compound D-induced GSPT1 degradation; also recorded: attenuated Compound D induced GSPT1 degradation"},
      {"measurement": "GSPT1 expression, cotreatment with cycloheximide", "setting": "[3]; U937-Cas9 parental", "value": "downregulated GSPT1 expression"},
      {"measurement": "GSPT1 expression, cotreatment with cycloheximide, TSC1 or TSC2 loss", "setting": "[3]; U937 TSC1-/- and TSC2-/-", "value": "largely abrogated this effect"},
      {"measurement": "Compound D induced GSPT1 degradation after TSC1 or TSC2 knockout", "setting": "[3]; U937 and OCI-AML2", "value": "partially blocked GSPT1 degradation induced by Compound D; also recorded: Attenuated Compound D induced GSPT1 degradation"},
      {"measurement": "Compound D-induced interaction of HA-tagged GSPT1 with endogenous cereblon after TSC1 loss", "setting": "[4]", "value": "significantly reduced the interaction between HA-tagged GSPT1 and endogenous cereblon induced by Compound D"}
    ]}
  ]
}
